Key:
[1] = target: anti-METH monoclonal antibody (mAb) generated from mice immunized with (+)-METH HSMO9 BSA MCV; test: mAb affinity; assay type: binding, Mus musculus
[2] = target: anti-METH monoclonal antibody (mAb) generated from mice immunized with (+)-METH HSMO9 BSA MCV; test: mAb affinity; assay type: binding, Mus musculus; remark: listed apart in the source

CN[C@@H](C)Cc1ccc2c(c1)OCO2 [(+)-MDMA]
Ki [1]: 1.1 nM

CN[C@@H](C)Cc1ccccc1 [(+)-METH]
Kd [2]: 6.8 nM

— article PMC3141093 (2011)
